Read-outs that look alike come from different tables or passages of the source.
Legend:
CYP1A1 = test: Cytochrome P450 induction in differentiated hepatocytes (CYP1A1); assay type: in vitro ADME, human; settings: 50 µM omeprazole, normalized to vehicle-only controls
[1] = system: CYP3A4/5, 2E1, 2B6 and 1A1; test: Cytochrome P450 inhibition in differentiated hepatocytes; assay type: in vitro ADME, human; settings: after 30 min of incubation, 200 µM naringenin
CYP450 = settings: human, hepatocytes, 72 h, 200 µM
[2] = system: differentiated hepatocytes; test: Intrahepatic cholestasis: bile secretion by CDFDA staining; assay type: cell-based, human; settings: 24 hours of exposure, compared to melatonin
[3] = system: differentiated hepatocytes; test: Apoptosis quantification by TUNEL
[4] = system: differentiated hepatocytes; settings: human, 48 h
[5] = system: primary human hepatocyte transduced with HPV E6 and E7 genes

In the case of COc1ccc2[nH]c([S+]([O-])Cc3ncc(C)c(OC)c3C)nc2c1 (stereo not drawn) [omeprazole], the “CYP1A1 increased by stimulation” value (CYP1A1) is reported as 10 folds.

In the case of O=C1C[C@@H](c2ccc(O)cc2)Oc2cc(O)cc(O)c21 [naringenin], the “inhibition of CYP3A4/5, 2E1, 2B6 and 1A1” value [1] is reported as “drastically inhibited” and the “increase in CYP450 activity compared with vehicle-treated cells” value (CYP450) is reported as 5-7 fold.

For Cc1c(C)c2c(c(C)c1O)CCC(C)(COc1ccc(CC3SC(=O)NC3=O)cc1)O2 (stereo not drawn) [troglitazone], the “bile secretion (measure of intrahepatic cholestasis)” value [2] was “loss of bile secretion function”.

With aflatoxin B1 the “Percent apoptosis (positive nuclei)” value [3] was 23%.

With CC(=O)Oc1ccccc1C(=O)O [acetylsalicylic acid] the “increase in intracellular lipids compared to control” value [4] was 33-47%.

N#CC(=C(/N)Sc1ccccc1N)/C(C#N)=C(\N)Sc1ccccc1N [U0126] was tested, and the “epithelial phenotype of the cells” value [5] was “stable E-Cadherin positive epithelial phenotype”.

For COc1ccc2[nH]cc(CCNC(C)=O)c2c1 [melatonin], the “Percent apoptosis (positive nuclei)” value ([3]; differentiated hepatocytes exposed for 24 hours to TC20 values, TUNEL) was 4%.

For CN(C)CCCN1c2ccccc2Sc2ccc(Cl)cc21 [chlorpromazine], the “bile secretion (measure of intrahepatic cholestasis)” value [2] was “loss of bile secretion function”.
